The source of these data is patent US20050187239A1 (priority 2002, published 2005).

The test system of this test is Male CD-1 mice. The note with it: mouse, in vivo.

For `COc1ccc2c3c1O[C@H]1[C@@H](O)C=C[C@H]4[C@@H](C2)N(C)CC[C@@]341` [Codeine, codeine], the “ED50 Value, Combination (Total Drug Dose), Additive (predicted)” value (shortened to “ED50 Value, Combination … (predicted)”) is 2.79 ± 0.22 mg/kg s.c; the “ED50 Value, Combination (Total Drug Dose), Observed” value (shortened to “ED50 Value, Combination … Observed”) was determined as 0.74 ± 0.10 mg/kg s.c; the “ED50 Value, Drug alone” value was 3.7 ± 0.4 mg/kg s.c; the “isobolographic analysis: combination with methadone versus composite additive line (FIG. 3)” value is “significantly greater than the composite additive line”. Also, the “interaction with a fixed dose of L-methadone (FIG. 1A)” value (from here on “interaction with a fixed dose”) (sc) is on record as “greater than additive responses”.

As to `CCC(=O)C(C[C@H](C)N(C)C)(c1ccccc1)c1ccccc1` [D-Methadone, D-methadone], the “ED50 Value, Drug alone” value is listed as >>4 mg/kg s.c; the analgesic effect alone result is on record as “did not show any effects alone”; the “effect on morphine responses when given together (FIG. 2)” value was “did not influence morphine responses”.

For the compound `CCC(=O)C(C[C@@H](C)N(C)C)(c1ccccc1)c1ccccc1` [L-Methadone, L-methadone], the “ED50 Value, Drug alone” value is listed as 1.9 ± 0.2 mg/kg s.c; the ED80 dose is given as 4 mg/kg s.c; the “effect on morphine responses when given together (FIG. 2)” value is “did reveal synergy”. Further, the “interaction with morphine (FIG. 1B)” value (sc) was “greater than additive interactions”.

As for `CN1CC[C@]23c4c5ccc(O)c4O[C@H]2[C@@H](O[C@@H]2O[C@H](C(=O)O)[C@@H](O)[C@H](O)[C@H]2O)C=C[C@H]3[C@H]1C5` [M6G, morphine-6β-glucuronide], the “ED50 Value, Combination … (predicted)” value is 2.80 ± 0.21 mg/kg s.c; the “ED50 Value, Combination … Observed” value is given as 1.03 ± 0.34 mg/kg s.c; the “ED50 Value, Drug alone” value stood at 3.7 ± 0.4 mg/kg s.c; the “isobolographic analysis: combination with methadone versus composite additive line (FIG. 3)” value is on record as “significantly greater than the composite additive line”. Moreover, the “interaction with a fixed dose” value (sc) was “greater than the sum of their independent actions”.

Turning to `CN1CC[C@]23c4c5ccc(O)c4O[C@H]2[C@@H](O)C=C[C@H]3[C@H]1C5` [Morphine, morphine], the “ED50 Value, Combination … (predicted)” value was 3.11 ± 0.32 mg/kg s.c; the “ED50 Value, Combination … Observed” value is listed as 0.83 ± 0.12 mg/kg s.c; the “ED50 Value, Drug alone” value was found to be 4.7 ± 1.1 mg/kg s.c; the “analgesic activity of the combination versus additivity (FIG. 4)” value is reported as “significantly greater than additive”. Moreover, the “isobolographic analysis: combination with methadone versus composite additive line (FIG. 3)” value is on record as “significant greater than the composite additive line”. Also, the “interaction with a fixed dose” value (sc) is listed as “greater than the sum of their independent actions”.

Take `CCOC(=O)C1(c2ccccc2)CCN(C)CC1` [meperidine]: the “interaction with a fixed dose” value (sc) is given as “additive interactions”.

With `COc1ccc2c3c1O[C@H]1C(=O)CC[C@@]4(O)[C@@H](C2)N(C)CC[C@]314` [oxycodone], where the note is “sc”, the “interaction with a fixed dose” value is “additive interactions”.

For the compound `CN1CC[C@]23c4c5ccc(O)c4O[C@H]2C(=O)CC[C@@]3(O)[C@H]1C5` [oxymorphone], the “interaction with a fixed dose” value (sc) is listed as “additive interactions”.
